From ChEMBL document CHEMBL6114988, “Design, synthesis and biological evaluation of dual CDK9/PARP inhibitors for the treatment of cancer” (Eur J Med Chem, 2025)

Legend:
[1] = target: Poly [ADP-ribose] polymerase 1 (Homo sapiens, UniProt P09874); test: Inhibition of PARP1 (unknown origin) incubated for 1 hr by ELISA
[2] = target: Cyclin-dependent kinase 9 (Homo sapiens, UniProt P50750)
Description: Inhibition of CDK9 (unknown origin) using lipid substrate incubated for 40 mins in presence of ATP by kinase-Glo plus luminescence assay

[3] = test system: MOLM-13; test: Antiproliferative activity against human MOLM-13 cells assessed as inhibition of cell proliferation incubated for 48 hrs by CCK-8 assay; assay type: functional, cell-based; conditions: MOLM-13, 48 h
[4] = test system: MV4-11; test: Antiproliferative activity against human MV4-11 cells assessed as inhibition of cell proliferation incubated for 48 hrs by CCK-8 assay; assay type: functional, cell-based; conditions: MV4-11, 48 h
[5] = target: CDK9/cyclin T1 (Homo sapiens) (UniProt O60563+P50750); conditions: dose 200.0 nM, time 70.0 min
[6] = test system: HeLa; test: cells; conditions: Homo sapiens, 48 h
Description: Antiproliferative activity against human HeLa cells assessed as inhibition of cell proliferation incubated for 48 hrs by CCK-8 assay

[7] = test system: HCT-116; test: cells; conditions: Homo sapiens, HCT-116, 48 h
Description: Antiproliferative activity against human HCT-116 cells assessed as inhibition of cell proliferation incubated for 48 hrs by CCK-8 assay

[8] = test system: MCF7; test: cells; conditions: Homo sapiens, MCF7, 48 h
Description: Antiproliferative activity against human MCF7 cells assessed as inhibition of cell proliferation incubated for 48 hrs by CCK-8 assay

[9] = test system: MDA-MB-231; test: cells; conditions: Homo sapiens, MDA-MB-231, 48 h
Description: Antiproliferative activity against human MDA-MB-231 cells assessed as inhibition of cell proliferation incubated for 48 hrs by CCK-8 assay

[10] = test system: MDA-MB-231; test: Induction of apoptosis in human MDA-MB-231 cells assessed as viable cell at 2 uM incubated for 24 hrs by Annexin V-FITC/PI staining based analysis (reference value: 96.3 %); assay type: functional
[11] = test system: MDA-MB-231; test: Induction of apoptosis in human MDA-MB-231 cells assessed as early apoptotic cell at 2 uM incubated for 24 hrs by Annexin V-FITC/PI staining based analysis (reference value: 0.96 %); assay type: functional
[12] = test system: MDA-MB-231; test: Induction of apoptosis in human MDA-MB-231 cells assessed as late apoptotic cell at 2 uM incubated for 24 hrs by Annexin V-FITC/PI staining based analysis (reference value: 2.61 %); assay type: functional
[13] = test system: MDA-MB-231; test: Induction of apoptosis in human MDA-MB-231 cells assessed as necrotic cell at 2 uM incubated for 24 hrs by Annexin V-FITC/PI staining based analysis (reference value: 0.10 %); assay type: functional
[14] = test system: MDA-MB-231; test: Induction of cell cycle arrest in human MDA-MB-231 cells assessed as accumulation of cells at G1 phase at 2 uM incubated for 24 hrs by PI staining based flow cytometric analysis (reference value: 58.1%); assay type: functional
[15] = test system: MDA-MB-231; test: Induction of cell cycle arrest in human MDA-MB-231 cells assessed as accumulation of cells at S phase at 2 uM incubated for 24 hrs by PI staining based flow cytometric analysis (reference value: 29.2%); assay type: functional
[16] = test system: MDA-MB-231; test: Induction of cell cycle arrest in human MDA-MB-231 cells assessed as accumulation of cells at G2/M phase at 2 uM incubated for 24 hrs by PI staining based flow cytometric analysis (reference value: 11.3%); assay type: functional
[17] = Metabolic stability in rat liver microsomes assessed as half life at 1 mg/ml incubated for 60 min in presence of NADPH by HPLC analysis; assay type: ADME, Microsome
[18] = Metabolic stability in artificial gastric fluid assessed as parent compound remaining at 1 mg/ml incubated for 8 hrs by HPLC analysis; assay type: ADME; conditions: read-out: Stability
[19] = Metabolic stability in artificial intestinal fluid assessed as parent compound remaining at 1 mg/ml incubated for 8 hrs by HPLC analysis; assay type: ADME; conditions: read-out: Stability
[20] = Metabolic stability in plasma assessed as parent compound remaining incubated for 3 hrs by HPLC analysis; assay type: ADME, cell-free; conditions: read-out: Stability

Poly [ADP-ribose] polymerase 1, sequence (P09874 whole entry): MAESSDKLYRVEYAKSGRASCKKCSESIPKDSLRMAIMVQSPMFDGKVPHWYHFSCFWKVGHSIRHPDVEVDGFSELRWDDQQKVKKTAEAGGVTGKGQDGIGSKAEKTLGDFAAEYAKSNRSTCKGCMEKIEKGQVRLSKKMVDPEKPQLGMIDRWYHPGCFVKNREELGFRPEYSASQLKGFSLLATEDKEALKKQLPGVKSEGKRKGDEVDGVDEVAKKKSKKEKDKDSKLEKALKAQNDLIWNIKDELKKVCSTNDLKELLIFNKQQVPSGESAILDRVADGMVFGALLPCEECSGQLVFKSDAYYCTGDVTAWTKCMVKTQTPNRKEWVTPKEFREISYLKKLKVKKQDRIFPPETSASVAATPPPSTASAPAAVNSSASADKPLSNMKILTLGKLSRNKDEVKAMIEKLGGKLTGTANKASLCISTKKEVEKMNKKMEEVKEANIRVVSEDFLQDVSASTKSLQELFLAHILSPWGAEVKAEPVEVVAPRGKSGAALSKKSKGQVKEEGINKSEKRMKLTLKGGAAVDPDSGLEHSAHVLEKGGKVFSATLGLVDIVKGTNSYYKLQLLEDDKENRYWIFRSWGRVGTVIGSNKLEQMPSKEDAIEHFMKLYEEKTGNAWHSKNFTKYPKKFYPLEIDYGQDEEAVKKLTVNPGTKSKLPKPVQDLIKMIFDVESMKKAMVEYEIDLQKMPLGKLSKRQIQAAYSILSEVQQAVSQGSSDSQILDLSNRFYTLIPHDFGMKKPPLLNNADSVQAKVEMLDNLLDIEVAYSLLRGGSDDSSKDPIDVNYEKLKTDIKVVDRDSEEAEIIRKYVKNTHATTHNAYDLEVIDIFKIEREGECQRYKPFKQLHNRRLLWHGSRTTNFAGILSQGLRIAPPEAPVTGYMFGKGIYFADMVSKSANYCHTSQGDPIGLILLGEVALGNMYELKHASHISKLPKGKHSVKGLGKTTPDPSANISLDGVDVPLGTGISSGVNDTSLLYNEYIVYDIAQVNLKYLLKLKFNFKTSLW
Cyclin-dependent kinase 9, sequence (P50750 whole entry): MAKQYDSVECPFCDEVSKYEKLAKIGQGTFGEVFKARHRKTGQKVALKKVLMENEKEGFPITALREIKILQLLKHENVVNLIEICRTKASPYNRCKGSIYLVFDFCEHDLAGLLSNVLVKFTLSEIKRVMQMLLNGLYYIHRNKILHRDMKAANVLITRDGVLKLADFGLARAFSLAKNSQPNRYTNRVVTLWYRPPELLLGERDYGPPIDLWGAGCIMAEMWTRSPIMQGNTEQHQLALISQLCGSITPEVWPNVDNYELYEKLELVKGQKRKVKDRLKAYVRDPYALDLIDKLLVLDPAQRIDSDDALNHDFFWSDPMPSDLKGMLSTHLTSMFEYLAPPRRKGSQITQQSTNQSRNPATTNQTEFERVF

Structure (SMILES)	IC50 [1] [nM]	IC50 [2] [nM]	IC50 [3] [nM]	IC50 [4] [nM]	IC50 [7] [nM]	IC50 [8] [nM]	IC50 [9] [nM]	other results
O=C(c1cc(Cc2n[nH]c(=O)c3ccccc23)ccc1F)N1CCN(Cc2ccnc(Nc3cc(-c4ccc(F)c5ccoc45)c(F)cn3)c2)CC1	118	54	–	–	–	–	–	–
COc1ccc(-c2cc(Nc3cc(CN4CCN(C(=O)c5cc(Cc6n[nH]c(=O)c7ccccc67)ccc5F)CC4)ccn3)ncn2)c(OC)c1	10	29	4050	1420	2520	> 50000	> 50000	inhibition [5]: 73.9%; IC50 [6]: 1210 nM
O=C(c1cc(Cc2n[nH]c(=O)c3ccccc23)ccc1F)N1CCN(C(=O)C2CC2)CC1 [OLAPARIB]	–	–	43100	15200	200000	195000	> 50000	Activity [10]: 96.8%; Activity [11]: 0.59%; Activity [12]: 2.13%; Activity [13]: 0.48%; Activity [14]: 48.7%; Activity [15]: 35.8%; Activity [16]: 14.1%; half-life at 1 mg/ml [17]: 1.86 h; remaining at 8 h, 1 mg/ml [18]: 99.4%; remaining at 8 h, 1 mg/ml [19]: 100%; remaining at 3 h [20]: 99.4%
CCOc1cc(F)ccc1-c1cc(Nc2cc(CN3CCN(C(=O)c4cc(Cc5n[nH]c(=O)c6ccccc56)ccc4F)CC3)ccn2)ncc1F	32	59	–	–	–	–	–	–
COc1ccc(-c2cc(Nc3cc(CN4CCN(C(=O)c5cc(Cc6n[nH]c(=O)c7ccccc67)ccc5F)CC4)ccn3)ncc2F)c(OC)c1	30	31	–	–	–	–	–	–
COc1ccc(OC)c(-c2cc(Nc3cc(CN4CCN(C(=O)c5cc(Cc6n[nH]c(=O)c7ccccc67)ccc5F)CC4)ccn3)ncn2)c1	14	315	–	–	–	–	–	–
